# Read-outs that look alike come from different tables or passages of the source.
# What was measured:
# [1] = molecular target: nuclear factor-kappa B (NF-kB)-inducing kinase (NIK) (Homo sapiens (Human), UniProt Q99558); experiment: NIK enzyme inhibition assay (Transcreener ADP, NIK ADP-FP); assay type: biochemical; settings: purified NIK 0.5 nM, 10 μM ATP, fluorescence polarization; read-out: NIK ADP-FP (Ki μM)
# [2] = test system: REL-A (p65) nuclear translocation, HeLa cells; experiment: REL-A (p65) nuclear translocation assay in HeLa cells (classical NF-kB signaling, TNF-α stimulated); assay type: cell-based; settings: Homo sapiens, 0.5 h
# Method: (§1) Several assays were developed to profile the cellular activities of NIK inhibitors.
# (§2) (2) A second set of cell assay are used to define the selectivity of NIK inhibitors toward inhibition of classical vs. non-classical NF-kB signaling and rely on quantification of the nuclear translocation of p52 (NF-kB2) and REL-A (p65) using high content cellular imaging. For the p52 (non-classical NF-kB signaling) nuclear translocation assay, HeLa cells are treated with different concentrations of compounds (0.2% DMSO final) in medium containing 10% fetal bovine serum and then stimulated with 100 ng/mL of an anti-lymphotoxin beta receptor antibody (R&D Systems) for 5 hours. In the REL-A nuclear translocation assay, HeLa cells are incubated with compounds (0.2% DMSO final) for 4.5 hours in medium containing 10% fetal bovine serum before stimulating them with 10 ng/mL tumor necrosis factor (TNF)-α (R&D Systems) for 30 minutes. Cells are fixed with 4% paraformaldehyde, permeabilized by adding 0.1% Triton X-100 in phosphate buffered saline, and then are incubated with either 2 ug/mL anti-p52 antibody (Millipore) or 400 ng/mL anti-REL-A (p65) antibody (Santa Cruz Biotechnology). Finally, the cells are incubated with an Alexa488-labeled secondary antibody (Invitrogen) and DRAQ5 DNA stain (Biostatus). Imaging is carried out using an Opera reader (Perkin Elmer) and data are analyzed with the aid of Acapella software (Perkin Elmer). The p52 or REL-Atranslocation into the nucleus is quantified by the ratio of the nuclear to cytoplasmic signal intensity. […] The compounds in listed in Table 1 have the corresponding inhibitory value (IC50 in micromolar) for NIK p52 Translocation Assay as set forth in Table 2.
# (§3) The compounds in listed in Table 1 have the corresponding inhibitory values (IC50 in micromolar) for the Translocation Assays as set forth in Table 2.
# [3] = test system: p52 (NF-kB2) nuclear translocation, HeLa cells; experiment: p52 (NF-kB2) nuclear translocation assay in HeLa cells (non-classical NF-kB signaling, anti-lymphotoxin beta receptor antibody stimulated); assay type: cell-based; settings: Homo sapiens, 100 ng/mL anti-lymphotoxin beta receptor antibody for 5 hours, read-out: p52 HeLa Transloc Assay (IC50)
# Method: as §1, §2, §3
# [4] = HeLa cells, 10 ng/mL TNF-α for 30 minutes, read-out: REL-A HeLa Transloc Assay (IC50)
# Sequence of nuclear factor-kappa B (NF-kB)-inducing kinase (NIK) (Q99558 whole entry): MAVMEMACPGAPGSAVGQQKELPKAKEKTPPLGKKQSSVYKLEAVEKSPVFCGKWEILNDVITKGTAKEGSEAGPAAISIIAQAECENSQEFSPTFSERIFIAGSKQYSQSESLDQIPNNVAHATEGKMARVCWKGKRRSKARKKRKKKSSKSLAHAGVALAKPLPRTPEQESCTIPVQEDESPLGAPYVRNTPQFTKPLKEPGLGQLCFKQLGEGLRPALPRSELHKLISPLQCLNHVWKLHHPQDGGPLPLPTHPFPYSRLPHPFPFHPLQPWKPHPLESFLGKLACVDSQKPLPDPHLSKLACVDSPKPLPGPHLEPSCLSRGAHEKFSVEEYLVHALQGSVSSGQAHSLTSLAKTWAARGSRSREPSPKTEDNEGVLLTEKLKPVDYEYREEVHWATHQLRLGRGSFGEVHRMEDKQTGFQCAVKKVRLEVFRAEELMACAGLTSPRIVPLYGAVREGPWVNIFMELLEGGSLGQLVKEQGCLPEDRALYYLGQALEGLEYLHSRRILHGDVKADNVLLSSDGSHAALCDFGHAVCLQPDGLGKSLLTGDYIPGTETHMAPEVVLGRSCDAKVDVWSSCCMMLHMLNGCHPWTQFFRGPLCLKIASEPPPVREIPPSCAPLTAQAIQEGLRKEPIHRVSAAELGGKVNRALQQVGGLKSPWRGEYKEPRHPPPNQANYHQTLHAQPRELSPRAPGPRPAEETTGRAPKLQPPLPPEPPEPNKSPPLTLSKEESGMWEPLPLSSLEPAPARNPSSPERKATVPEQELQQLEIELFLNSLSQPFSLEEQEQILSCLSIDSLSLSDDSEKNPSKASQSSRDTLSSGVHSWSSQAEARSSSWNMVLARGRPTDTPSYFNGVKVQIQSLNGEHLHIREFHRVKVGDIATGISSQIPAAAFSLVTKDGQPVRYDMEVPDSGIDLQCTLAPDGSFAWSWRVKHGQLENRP
Compound,Ki [1] [nM],"IC50 [2, 4] [µM]",IC50 [3] [nM],"IC50 ([2]; HeLa, read-out: REL-A HeLa Transloc Assay (IC50) [μM]) [µM]"
"CN1CC[C@@](O)(C#Cc2ccnc(-n3nc(C(N)=O)c4ccc(F)cc43)c2)C1=O [Compound 63, 6-fluoro-1-[4-[2-[(3R)-3-hy-droxy-1-methyl-2-oxo-pyrroli-din-3-yl]ethynyl]-2-pyri-dyl]indazole-3-carboxamide]",0.1,2,27,
"CN1CC[C@@](O)(C#Cc2ccnc(-n3nc(C(N)=O)c4c3CCC(C)(C)C4)c2)C1=O [Compound 64, 1-[4-[2-[(3R)-3-hydroxy-1-methyl-2-oxo-pyrrolidin-3-yl]ethynyl]-2-pyridyl]-5,5-dimethyl-6,7-dihydro-4H-inda-zole-3-carboxamide]",3.06,3.03,2310,
"COc1ccc2c(c1)c(C(N)=O)nn2-c1cc(C#C[C@]2(O)CCN(C)C2=O)ccn1 [Compound 65, 1-[4-[2-[(3R)-3-hydroxy-1-methyl-2-oxo-pyrrolidin-3-yl]ethynyl]-2-pyridyl]-5-meth-oxy-indazole-3-carboxamide]",0.05,2,14,
"CN1CC[C@@](O)(C#Cc2ccnc(-n3nc(C(N)=O)c4cc(Br)ccc43)c2)C1=O [Compound 66, 5-bromo-1-[4-[2-[(3R)-3-hy-droxy-1-methyl-2-oxo-pyrroli-din-3-yl]ethynyl]-2-pyri-dyl]indazole-3-carboxamide]",0.15,20,55,
"Cc1nnc([C@](C)(O)C#Cc2cccc(-n3nc(C(N)=O)c4cccnc43)c2)o1 [Compound 67, 1-[3-[(3R)-3-hydroxy-3-(5-methyl-1,3,4-oxadiazol-2-yl)but-1-ynyl]phenyl]pyrazo-lo[3,4-b]pyridine-3-carbox-amide]",3.14,20,893,
"CN1CC[C@@](O)(C#Cc2cccc(-n3nc(C(N)=O)c4c3COCC4)c2)C1=O [Compound 69, 1-[3-[2-[(3R)-3-hydroxy-1-methyl-2-oxo-pyrrolidin-3-yl]ethynyl]phenyl]-5,7-dihy-dro-4H-pyrano[3,4-c]pyrazole-3-carboxamide]",3.98,20,945,
"CN1CC[C@@](O)(C#Cc2cccc(-n3nc(C(N)=O)c4c3CCOC4)c2)C1=O [Compound 70, 1-[3-[2-[(3R)-3-hydroxy-1-methyl-2-oxo-pyrrolidin-3-yl]ethynyl]phenyl]-6,7-dihy-dro-4H-pyrano[4,3-c]pyrazole-3-carboxamide]",0.75,20,864,
"NC(=O)c1nn(-c2cc(C#C[C@]3(O)CCNC3=O)ccn2)c2cc(F)ccc12 [Compound 71, 6-fluoro-1-[4-[2-[(3R)-3-hy-droxy-2-oxo-pyrrolidin-3-yl]ethynyl]-2-pyridyl]indazole-3-carboxamide]",0.64,20,178,
"NC(=O)c1nn(-c2cc(C#C[C@]3(O)CCc4cccnc43)ccn2)c2cc(F)ccc12 [Compound 72, 6-fluoro-1-[4-[2-[(7R)-7-hy-droxy-5,6-dihydrocyclopen-ta[b]pyridin-7-yl]ethynyl]-2-pyridyl]indazole-3-carbox-amide]",0.14,20,247,
"COc1cc(C#C[C@]2(O)CCN(C)C2=O)cc(-n2nc(C(N)=O)c3cccnc32)c1 [Compound 73, 1-[3-[2-[(3R)-3-hydroxy-1-methyl-2-oxo-pyrrolidin-3-yl]ethynyl]-5-methoxy-phe-nyl]pyrazolo[3,4-b]pyridine-3-carboxamide]",1.05,20,119,
"CN1CC[C@@](O)(C#Cc2cccc(-n3nc(C(N)=O)c4cc(F)cnc43)c2)C1=O [Compound 75, 5-fluoro-1-[3-[2-[(3R)-3-hy-droxy-1-methyl-2-oxo-pyrroli-din-3-yl]ethynyl]phenyl] pyrazolo[3,4-b]pyridine-3-carboxamide]",0.24,20,56.9,
"CN1CC[C@@](O)(C#Cc2cccc(-n3nc(C(N)=O)c4cnc(Cl)cc43)c2)C1=O [Compound 76, 6-chloro-1-[3-[2-[(3R)-3-hy-droxy-1-methyl-2-oxo-pyrroli-din-3-yl]ethynyl]phenyl] pyrazolo[4,3-c]pyridine-3-carboxamide]",0.05,8,41.2,
"Cc1c(Cl)c(C(N)=O)nn1-c1cc(C#C[C@]2(O)CCN(C)C2=O)ccn1 [Compound 78, 4-chloro-1-[4-[2-[(3R)-3-hy-droxy-1-methyl-2-oxo-pyrroli-din-3-yl]ethynyl]-2-pyri-dyl]-5-methyl-pyrazole-3-car-boxamide]",16.8,20,2710,
"CN1CC[C@@](O)(C#Cc2cccc(-c3nc(C(N)=O)n4cccnc34)c2)C1=O [Compound 85, 8-[3-[2-[(3R)-3-hydroxy-1-methyl-2-oxo-pyrrolidin-3-yl]ethynyl]phenyl]imidazo[1,5-a]pyrimidine-6-carboxamide]",0.05,19.2,38.6,
"CN1CC[C@@](O)(C#Cc2cccc(-c3nc(C(N)=O)c4cccnn34)c2)C1=O [Compound 86, 7-[3-[2-[(3R)-3-hydroxy-1-methyl-2-oxo-pyrrolidin-3-yl]ethynyl]phenyl]imidazo[1,5-b]pyridazine-5-carboxamide]",0.73,20,356,
"CN1CC[C@@](O)(C#Cc2cccc(-c3csc(C(N)=O)n3)c2)C1=O [Compound 89, 4-[3-[2-[(3R)-3-hydroxy-1-methyl-2-oxo-pyrrolidin-3-yl]ethynyl]phenyl]thiazole-2-carboxamide]",1.65,> 20,226,
"CN1CC[C@@](O)(C#Cc2cccc(-c3nc(C(N)=O)n4ccc(C#N)cc34)c2)C1=O [Compound 90, 7-cyano-1-[3-[2-[(3R)-3-hy-droxy-1-methyl-2-oxo-pyrroli-din-3-yl]ethynyl]phenyl] imidazo[1,5-a]pyridine-3-car-boxamide]",0.05,2,63.4,
"CN1CC[C@@](O)(C#Cc2cccc(-c3nc(C(N)=O)n4ccc(C(F)(F)F)cc34)c2)C1=O [Compound 91, 1-[3-[2-[(3R)-3-hydroxy-1-methyl-2-oxo-pyrrolidin-3-yl]ethynyl]phenyl]-7-(trifluoro-methyl)imidazo[1,5-a]pyri-dine-3-carboxamide]",0.15,20,18.9,
"CN1CC[C@@](O)(C#Cc2cccc(-c3nc(C(N)=O)n4ccncc34)c2)C1=O [Compound 92, 1-[3-[2-[(3R)-3-hydroxy-1-methyl-2-oxo-pyrrolidin-3-yl]ethynyl]phenyl]imidazo[1,5-a]pyrazine-3-carboxamide]",0.37,20,25.9,
"CN1CC[C@@](O)(C#Cc2cccc(-c3nc(C(N)=O)n4cc(Cl)ccc34)c2)C1=O [Compound 93, 6-chloro-1-[3-[2-[(3R)-3-hy-droxy-1-methyl-2-oxo-pyrroli-din-3-yl]ethynyl]phenyl] imidazo[1,5-a]pyridine-3-carboxamide]",0.06,20,15.3,
"CN1CC[C@@](O)(C#Cc2cccc(-c3nc(C(N)=O)n4ccc(Cl)cc34)c2)C1=O [Compound 94, 7-chloro-1-[3-[2-[(3R)-3-hy-droxy-1-methyl-2-oxo-pyrroli-din-3-yl]ethynyl]phenyl] imidazo[1,5-a]pyridine-3-carboxamide]",0.05,6.32,7.26,
"CN1CC[C@@](O)(C#Cc2cccc(-c3ccn4c(C(N)=O)nc(-c5cccc(C#C[C@]6(O)CCN(C)C6=O)c5)c4c3)c2)C1=O [Compound 95, 1,7-bis[3-[2-[(3R)-3-hydroxy-1-methyl-2-oxo-pyrrolidin-3-yl]ethynyl]phenyl]imi-dazo[1,5-a]pyridine-3-carbox-amide]",0.05,,86.4,2
"CN1CC[C@@](O)(C#Cc2cccc(-c3nc(C(N)=O)n4ccc(OC5CCC5)cc34)c2)C1=O [Compound 96, 7-(cyclobutoxy)-1-[3-[2-[(3R)-3-hydroxy-1-methyl-2-oxo-pyrrolidin-3-yl]ethynyl]phenyl]imidazo[1,5-a]pyridine-3-carboxamide]",0.14,20,60.3,
"COc1ccn2c(C(N)=O)nc(-c3cccc(C#C[C@]4(O)CCN(C)C4=O)c3)c2c1 [Compound 97, 1-[3-[2-[(3R)-3-hydroxy-1-methyl-2-oxo-pyrrolidin-3-yl]ethynyl]phenyl]-7-methoxy-imidazo[1,5-a]pyridine-3-carboxamide]",0.05,1,6.6,

# — patent US9605005B2, “Alkynyl alcohols and methods of use” (Genentech, Inc., priority 2013, dated 2017)
